Where two headings read alike, the source gives them in different places. Where a SMILES comes first, the peptide text is derived from it. [ ]: non-standard residue; d: D form. The star is where a group is joined. Dolaproine = CO[C@@H]([C@@H]1CCCN1)[C@@H](C)C(=O)O; Dil = CC[C@H](C)[C@H](NC)[C@@H](CC(=O)O)OC; NMe2Val = CC(C)[C@@H](C(=O)*)N(C)C; NMeV = CN[C@H](C(=O)O)C(C)C; X3 = C[Si](C)(O)CCCC(=O)*; X2 = C[Si](C)(O)CCCN*
Tests used:
KB cells [1] = assay: CellTiter-Glo cell viability, 72 hour incubation protocol; type: cell-based; details: Homo sapiens
Method: 72 hour incubation protocol: The CellTiter-Glo (CTG) assay (Promega) was used to measure cell viability in various different cell lines included KB cells obtained from American Type Culture Collection (ATCC). […] For this assay, 5,000 cells per well were plated in a 96-well tissue culture treated plate in RPMI 1640 medium (ThermoFisher Scientific) containing 5% FBS. Cells were allowed to settle at 37° C. in a humidified CO2 incubator for 24 hours. Cells were dosed with compound or vehicle control in duplicate for 72 hours at 37° C. in a humidified CO2 incubator. After the 72 hour dosing period, the CTG assay was performed according to the manufacturer's specifications. Luminescence was read using a Victor X5 (PerkinElmer) plate reader. Data was analyzed using Prism software and was normalized to the vehicle control.

KB cells [2] = assay: Cell titer-glo cell viability, washout protocol; type: cell-based; details: percent cell kill at 48 h
Method: Washout protocol: KB cells in culture were seeded in white clear bottom 96-well tissue culture plate at a density of 5,000 cells per well in a folate free RPMI media with 10% FBS a day prior to compound addition. Cells were counted visually with a hemocytometer and diluted accordingly to obtain the desired density. Cells were allowed to incubate for 24 hours in a humidified CO2 atmosphere in an incubator at 37° C. The spent media was aspirated and replenished with 100 μL of fresh media containing a 3-fold serial dilution of compound with concentrations ranging from 0.3 to 2000 nM and with a final DMSO concentration of 0.1%. Blank wells without compound were also treated with media containing 0.1% DMSO. Cells were incubated for 2 h and washed 4 times with fresh media. […] […] 100 μL of constituted Cell titer-glo reagent was added to each well and luminescence was recorded with a VICTOR plate reader according to manufacturers' protocol.

[3] = 72 h incubation protocol, silanol based payloads, read-out: EC50

Compound CC[C@]1(O)C[C@H]2CN(CCc3c([nH]c4ccccc34)[C@@](C(=O)OC)(c3cc4c(cc3OC)N(C)[C@H]3[C@@](O)(C(=O)NCCC[Si](C)(C)O)[C@H](O)[C@]5(CC)C=CCN6CC[C@]43[C@@H]65)C2)C1 (stereo in doubt) [Example 1, Methyl (3R,5S,7R,9S)-5-ethyl-9-((3aR,3a1R,4R,5S,5aR,10bR)-3a-ethyl-4,5-dihydroxy-5-((3-(hydroxydimethylsilyl)propyl)carbamoyl)-8-methoxy-6-methyl-3a,3a1,4,5,5a,6,11,12-octahydro-1H-indolizino[8,1-cd]carbazol-9-yl)-5-hydroxy-1,4,5,6,7,8,9,10-octahydro-2H-3,7-methano[1]azacycloundecino[5,4-b]indole-9-carboxylate] has an EC50 (KB cells [1]; [3]) of roughly 6 nM.

CCCC(=O)OCN(C(=O)[C@@H](NC(=O)[C@H]1CCCCN1C)[C@@H](C)CC)[C@H](C[C@@H](OC(C)=O)c1nc(C(=O)N[C@@H](Cc2ccc(O)cc2)C[C@H](C)C(=O)NCCC[Si](C)(C)O)cs1)C(C)C (stereo in doubt) [Example 13] was tested, and the EC50 (KB cells [1]; 72 h) was less than 0.1 nM.

CC[C@H](C)[C@@H]([C@@H](CC(=O)N1CCC[C@H]1[C@H](OC)[C@@H](C)C(=O)N[C@@H](Cc1ccccc1)C(=O)NCCC[Si](C)(C)O)OC)N(C)C(=O)[C@@H](NC(=O)[C@H](C(C)C)N(C)C)C(C)C [Example 5, (S)—N-((3R,4S,5S)-1-((S)-2-((3R,4R,7S)-7-benzyl-13-hydroxy-4,13-dimethyl-5,8-dioxo-2-oxa-6,9-diaza-13-silatetradecan-3-yl)pyrrolidin-1-yl)-3-methoxy-5-methyl-1-oxoheptan-4-yl)-2-((S)-2-(dimethylamino)-3-methylbutanamido)-N,3-dimethylbutanamide] (NMe2Val-V[Dil][Dolaproine]F-X2) showed an EC50 (KB cells [1]; 72 h) of roughly 0.5 nM.

In the case of CC[C@H](C)[C@@H]([C@@H](CC(=O)N1CCC[C@H]1[C@H](OC)[C@@H](C)C(=O)N[C@@H](Cc1ccccc1)C(=O)O)OC)N(C)C(=O)[C@@H](NC(=O)[C@H](C(C)C)N(C)C(=O)CCC[Si](C)(C)O)C(C)C [Example 6, ((2R,3R)-3-((S)-1-((3R,4S,5S)-4-((S)-2-((S)-2-(4-(hydroxydimethylsilyl)-N-methylbutanamido)-3-methylbutanamido)-N,3-dimethylbutanamido)-3-methoxy-5-methylheptanoyl)pyrrolidin-2-yl)-3-methoxy-2-methylpropanoyl)-L-phenylalanine] (X3-[NMeV]V[Dil][Dolaproine]F-OH), the EC50 (KB cells [1]; 72 h) is reported as roughly 500 nM.

CC[C@@]1(O)C(=O)OCc2c1cc1n(c2=O)Cc2c-1nc1ccccc1c2CC[Si](C)(C)O [Example 7, (S)-4-Ethyl-4-hydroxy-11-(2-(hydroxydimethylsilyl)ethyl)-1,12-dihydro-14H-pyrano[3′,4′:6,7]indolizino[1,2-b]quinoline-3,14(4H)-dione] showed an EC50 (KB cells [1]; [3]) of roughly 56 nM.

CC[C@]1(O)C[C@@H]2CN(CCc3c([nH]c4ccccc34)[C@@](C(=O)OC)(c3cc4c(cc3OC)N(C)[C@H]3[C@@](O)(C(=O)NCCC[Si](C)(C)O[Si](C)(C)CSc5ncc(Cn6cc(COCCOCCOCCOCCOCCOCCNC(=O)CC[C@H](NC(=O)c7ccc(NCc8cnc9nc(N)[nH]c(=O)c9n8)cc7)C(=O)O)nn6)cn5)[C@H](O)[C@]5(CC)C=CCN6CC[C@]43[C@@H]65)C2)C1 [Example 24] was tested, and the “% Kill (48 h)” value (KB cells [2]) was 84%.

For CC[C@]1(O)CC2CN(CCc3c([nH]c4ccccc34)[C@@](C(=O)OC)(c3cc4c(cc3OC)N(C)[C@H]3[C@@](O)(C(=O)NCCC[Si](C)(C)O[Si](C)(C)CSc5ncc(COCCOCCOCCn6cc(COCC(COCc7cn(CCOCCOCCOCc8cnc(SC[Si](C)(C)O[Si](C)(C)CCCNC(=O)[C@@]9(O)[C@H](O)[C@]%10(CC)C=CCN%11CC[C@@]%12(c%13cc([C@@]%14(C(=O)OC)CC%15CN(CCc%16c%14[nH]c%14ccccc%16%14)C[C@](O)(CC)C%15)c(OC)cc%13N(C)[C@@H]9%12)[C@@H]%11%10)nc8)nn7)(COCc7cn(CCOCCOCCOCc8cnc(SC[Si](C)(C)O[Si](C)(C)CCCNC(=O)[C@@]9(O)[C@H](O)[C@]%10(CC)C=CCN%11CC[C@@]%12(c%13cc([C@@]%14(C(=O)OC)CC%15CN(CCc%16c%14[nH]c%14ccccc%16%14)C[C@](O)(CC)C%15)c(OC)cc%13N(C)[C@@H]9%12)[C@@H]%11%10)nc8)nn7)NC(=O)CCOCCOCCOCCOCCOCCOCCNC(=O)CC[C@H](NC(=O)c7ccc(NCc8cnc9nc(N)[nH]c(=O)c9n8)cc7)C(=O)O)nn6)cn5)[C@H](O)[C@]5(CC)C=CCN6CC[C@]43[C@@H]65)C2)C1 (some centres unmarked) [Example 27], the “% Kill (48 h)” value (KB cells [2]) was 80%.

In the case of CC[C@]1(O)C[C@@H]2CN(CCc3c([nH]c4ccccc34)[C@@](C(=O)OC)(c3cc4c(cc3OC)N(C)[C@H]3[C@@](O)(C(=O)NCCC[Si](C)(C)O[Si](C)(C)CSc5ncc(Cn6cc(C[C@H](NC(=O)[C@H](CC(=O)O)NC(=O)[C@H](CC(=O)O)NC(=O)[C@H](CCCNC(=N)N)NC(=O)[C@H](CC(=O)O)NC(=O)CC[C@H](NC(=O)c7ccc(NCc8cnc9nc(N)[nH]c(=O)c9n8)cc7)C(=O)O)C(=O)O)nn6)cn5)[C@H](O)[C@]5(CC)C=CCN6CC[C@]43[C@@H]65)C2)C1 [Example 28], the “% Kill (48 h)” value (KB cells [2]) is reported as 86%.
